Data set [1] is described as follows: Cytotoxicity against human HOG.R5 cells. Format: cell-based.
Another data set has as its system KB. The experiment in a line: Cytotoxicity against human KB cells. Format: functional, cell-based.
The test system of the next data set is Col2. Briefly: Cytotoxicity against human Col2 cells. It is filed as functional, cell-based.
The subject of a further data set is LNCaP. Briefly: Cytotoxicity against human LNCAP cells. Format: functional, cell-based.
A further data set relates to Lu1. The experiment in a line: Cytotoxicity against human Lu1 cells. Format: functional, cell-based.
The next data set deals with HUVEC. The experiment in a line: Cytotoxicity against HUVEC. It is filed as cell-based. Particulars: Homo sapiens.
The test system of data set [2] is Human immunodeficiency virus 1. Briefly: Antiviral activity against HIV1 3B infected in human HOG.R5 cells after 4 days. It is filed as functional, organism-based. Particulars: Human immunodeficiency virus 1, 3B, HOG.R5, 96 h.

Each structure is given as a SMILES string. Bounds are passed on as bounds.

For `COc1cc(C#C/C=C/COc2ccc(O)cc2)ccc1O`, in data set [1], the half-maximal cytotoxic concentration (CC50) (as a rule, the concentration giving 50% cytotoxicity) was below 17 µM. The IC50 – broadly, the concentration that gives 50% inhibition – in the data set on KB was 40.5 µM; in the data set on Col2 it was above 20 µg/mL; in the data set on LNCaP, above 20 µg/mL; with Lu1, 66.5 µM; with HUVEC it was above 20 µg/mL.
The compound `C=CC(/C=C\c1ccc(O)cc1)c1ccc(OC)c(O)c1` (stereo not given) had a CC50 in data set [1] of 12 µM. The IC50 in the data set with KB stood at 31.9 µM; in the data set with Col2 it was 41.4 µM; in the data set on LNCaP it was 41.1 µM; with Lu1 it was 25.5 µM; in the data set on HUVEC, 58.1 µM.
As to `C=CC(CC(=O)c1ccc(O)cc1)c1ccc(O)cc1` (stereo not given), the IC50 is 74.6 µM in data set [2]; above 20 µg/mL with KB; above 20 µg/mL with Col2; above 20 µg/mL in the data set with LNCaP; above 20 µg/mL in the data set on Lu1; above 20 µg/mL in the data set on HUVEC. For the same compound, in data set [1], the CC50 stood at 76.8 µM.
Take `C=CC(/C=C\c1ccc(O)cc1)c1ccc(O)c(OC)c1` (stereo not given): in data set [1], the 50% cytotoxic concentration (CC50) was 24.1 µM. The IC50 is 31.9 µM in the data set with KB; 22.3 µM in the data set on Col2; 23.4 µM with LNCaP; 15.9 µM with Lu1; 23.7 µM in the data set with HUVEC.
On to `C[C@H]1CC[C@@]2(OC1)O[C@H]1C[C@H]3[C@@H]4CC[C@@H]5C[C@@H](O[C@@H]6O[C@H](CO[C@@H]7OC[C@H](O)[C@H](O)[C@H]7O)[C@@H](O[C@@H]7OC[C@H](O)[C@H](O)[C@H]7O)[C@H](O)[C@H]6O[C@@H]6O[C@H](CO)[C@@H](O)[C@H](O)[C@H]6O)CC[C@]5(C)[C@H]4CC[C@]3(C)[C@H]1[C@@H]2C` [ASPARACOSIDE], for which the CC50 in data set [1] was below 10 µM. Moreover, the IC50 in the data set with KB was determined as 4.8 µM; with Col2, 5.4 µM; in the data set with LNCaP it was 10.1 µM; with Lu1 it was 4.2 µM; in the data set with HUVEC, 4.1 µM.
For `C[C@@H]1CC[C@@]2(OC1)O[C@H]1C[C@H]3[C@@H]4CCC5=CC(=O)CC[C@]5(C)[C@H]4C[C@@H](O)[C@]3(C)[C@@]1(O)[C@@H]2C` [ASPARACOSIN A], the half-inhibitory concentration (IC50) is 24.1 µM with KB; above 20 µg/mL with Col2; above 20 µg/mL with LNCaP; above 20 µg/mL with Lu1; above 20 µg/mL in the data set with HUVEC.
Regarding `COC1(OC)CC[C@@]2(C)[C@H](CC[C@@H]3[C@@H]2CC(=O)[C@@]2(C)[C@H]3C[C@@H]3O[C@]4(CC[C@@H](C)CO4)[C@@H](C)[C@@]32O)C1` [ASPARACOSIN B], the IC50 in the data set on KB, with Col2, in the data set with LNCaP, in the data set with Lu1 and with HUVEC was above 20 µg/mL throughout.
Compound `Oc1ccc(C#C/C=C/COc2ccc(O)cc2)cc1` [ASPARENYDIOL] registered a CC50 in data set [1] below 18 µM. The IC50 in the data set on KB was 8.5 µM; in the data set with Col2, above 20 µg/mL; in the data set on LNCaP, above 20 µg/mL; in the data set with Lu1 it was 70.1 µM; in the data set on HUVEC, above 20 µg/mL.
For `COc1cc(/C=C/CO)ccc1O` [CONIFERYL ALCOHOL], the IC50 with KB, in the data set on Col2, with LNCaP, in the data set on Lu1 and in the data set on HUVEC was above 20 µg/mL throughout.
Turning to `Cc1c2ccncc2c(C)c2c1[nH]c1ccccc12` [ELLIPTECINE], the 50% cytotoxic concentration (CC50) in data set [1] worked out at 0.08 µM. The half-inhibitory concentration (IC50) came to 0.16 µM in the data set on KB; 1.22 µM in the data set with Col2; 3.25 µM in the data set with LNCaP; 0.08 µM in the data set on Lu1; 0.37 µM in the data set with HUVEC.
`C=C[C@H](/C=C\c1ccc(O)cc1)c1ccc(O)cc1` [NYASOL]: the half-maximal inhibitory concentration (IC50) in data set [2] is 46.4 µM; with KB it was above 20 µg/mL; in the data set with Col2, above 20 µg/mL; in the data set with LNCaP, above 20 µg/mL; in the data set with Lu1 it was above 20 µg/mL; with HUVEC, above 20 µg/mL. Also, the midpoint of cytotoxicity in data set [1], the CC50, lay at 58.1 µM.

These data come from ChEMBL document CHEMBL1146477, “Bioactive constituents from Asparagus cochinchinensis” (J Nat Prod, 2004).
